We go through six compounds from ChEMBL document CHEMBL3621085, “Tetrazole regioisomers in the development of nitro group-containing antitubercular agents” (Medchemcomm, 2015).

The subject of series [1] is Mycobacterium tuberculosis. The experiment in a line: Antimycobacterial activity against Mycobacterium tuberculosis My 331/88 after 14 days by micromethod. Conditions: My 331/88, 336 h. The series is classed as functional.
The subject of series [2] is Mycobacterium avium. The experiment in a line: Antimycobacterial activity against Mycobacterium avium My 330/88 after 14 days by micromethod. Conditions: My 330/88, 336 h. The series is classed as functional.
In series [3] the test system is Mycobacterium tuberculosis. The experiment in a line: Antimycobacterial activity against Mycobacterium tuberculosis My 331/88 after 21 days by micromethod. Conditions: My 331/88, 504 h. Format: functional.
Series [4] concerns Mycobacterium avium. The experiment in a line: Antimycobacterial activity against Mycobacterium avium My 330/88 after 21 days by micromethod. Format: functional. Conditions: My 330/88, 504 h.
Series [5] deals with Mycobacterium kansasii. As to the kind of experiment: Antimycobacterial activity against Mycobacterium kansasii My 235/80 after 7 days by micromethod. Format: functional. Conditions: My 235/80, 168 h.
In series [6] the test system is Mycobacterium kansasii. As to the kind of experiment: Antimycobacterial activity against Mycobacterium kansasii My 235/80 after 14 days by micromethod. Format: functional. Conditions: My 235/80, 336 h.
Series [7] has as its system Mycobacterium kansasii. As to the kind of experiment: Antimycobacterial activity against Mycobacterium kansasii My 235/80 after 21 days by micromethod. Format: functional. Conditions: My 235/80, 504 h.
Series [8] relates to Mycobacterium kansasii. The experiment in a line: Antimycobacterial activity against Mycobacterium kansasii 6509/96 after 7 days by micromethod. The series is classed as functional. Conditions: 6509/96, 168 h.
The subject of series [9] is Mycobacterium kansasii. As to the kind of experiment: Antimycobacterial activity against Mycobacterium kansasii 6509/96 after 14 days by micromethod. Format: functional. Conditions: 6509/96, 336 h.
For series [10], the system named is Mycobacterium kansasii. The experiment in a line: Antimycobacterial activity against Mycobacterium kansasii 6509/96 after 21 days by micromethod. The series is classed as functional. Conditions: 6509/96, 504 h.
Series [11] can be described thus: Cytotoxicity against CHOK1 cells assessed as viability after 24 hrs by MTT assay. Format: cell-based. Conditions: Cricetulus griseus, CHO-K1, 24 h.
In series [12] the test system is Staphylococcus aureus. As to the kind of experiment: Antibacterial activity against Staphylococcus aureus ATCC 6538 after 24 to 48 hrs by broth micro dilution method. Format: functional, organism-based.
Series [13] has as its system Staphylococcus aureus. The experiment in a line: Antibacterial activity against methicillin-resistant Staphylococcus aureus H 5996/08 after 24 to 48 hrs by broth micro dilution method. Format: functional, organism-based.
Series [14] has as its system Staphylococcus epidermidis. The experiment in a line: Antibacterial activity against Staphylococcus epidermidis H 6966/08 after 24 to 48 hrs by broth micro dilution method. Format: functional, organism-based.
The next series relates to Enterococcus faecalis. As to the kind of experiment: Antibacterial activity against Enterococcus faecalis J 14365/08 after 24 to 48 hrs by broth micro dilution method. The series is classed as functional, organism-based.
The test system of another series is Escherichia coli. As to the kind of experiment: Antibacterial activity against Escherichia coli ATCC 8739 after 24 to 48 hrs by broth micro dilution method. The series is classed as functional, organism-based.
Series [15] relates to Klebsiella pneumoniae. The experiment in a line: Antibacterial activity against Klebsiella pneumoniae D 11750/08 after 24 to 48 hrs by broth micro dilution method. Format: functional, organism-based.
Series [16] relates to Klebsiella pneumoniae. The experiment in a line: Antibacterial activity against Klebsiella pneumoniae J 14368/08 after 24 to 48 hrs by broth micro dilution method. Format: functional, organism-based.
For series [17], the system named is Klebsiella pneumoniae. As to the kind of experiment: Antibacterial activity against ESBL positive Klebsiella pneumoniae J 14368/08 after 24 to 48 hrs by broth micro dilution method. The series is classed as functional, organism-based.
A further series has as its system Pseudomonas aeruginosa. As to the kind of experiment: Antibacterial activity against Pseudomonas aeruginosa ATCC 9027 after 24 to 48 hrs by broth micro dilution method. The series is classed as functional, organism-based.
In the next series the test system is Candida albicans. As to the kind of experiment: Antifungal activity against Candida albicans ATCC 44859 after 24 to 48 hrs by broth micro dilution method. The series is classed as functional, organism-based.
Another series deals with Candida tropicalis. As to the kind of experiment: Antifungal activity against Candida tropicalis 156 after 24 to 48 hrs by broth micro dilution method. The series is classed as functional, organism-based.
For another series, the system named is Pichia kudriavzevii. The experiment in a line: Antifungal activity against Candida krusei E28 after 24 to 48 hrs by broth micro dilution method. The series is classed as functional, organism-based.
The next series relates to Nakaseomyces glabratus. The experiment in a line: Antifungal activity against Candida glabrata 20/I after 24 to 48 hrs by broth micro dilution method. The series is classed as functional, organism-based.
The test system of a further series is Trichosporon asahii. The experiment in a line: Antifungal activity against Trichosporon asahii 1188 after 24 to 48 hrs by broth micro dilution method. The series is classed as functional, organism-based.
A further series has as its system Aspergillus fumigatus. As to the kind of experiment: Antifungal activity against Aspergillus fumigatus 2318 after 24 to 48 hrs by broth micro dilution method. The series is classed as functional, organism-based.
The next series relates to Lichtheimia corymbifera. The experiment in a line: Antifungal activity against Absidia corymbifera 272 after 24 to 48 hrs by broth micro dilution method. Format: functional, organism-based.
Series [18] concerns Trichophyton mentagrophytes. The experiment in a line: Antifungal activity against Trichophyton mentagrophytes 445 after 72 to 120 hrs by broth micro dilution method. The series is classed as functional, organism-based.
Series [19] relates to Salmonella typhimurium. As to the kind of experiment: Mutagenic activity in Salmonella typhimurium TA98 assessed as induction of reverse mutation at 50 uM. The series is classed as toxicity, organism-based. Conditions: salmonella enterica subsp. enterica serovar typhimurium.
Series [20] deals with Salmonella typhimurium. As to the kind of experiment: Mutagenic activity in Salmonella typhimurium TA100 assessed as induction of reverse mutation at 50 uM. The series is classed as toxicity, organism-based. Conditions: salmonella enterica subsp. enterica serovar typhimurium.

≈ marks a conversion by molar mass, not a printed value. Calls of active or inactive are those of the source. The calls are words filed in the database; no cut-off is given here.

With `O=[N+]([O-])c1cc(Cn2nnnc2SCc2ccccc2)cc([N+](=O)[O-])c1`, the MIC came out at 8 µM (≈ 2.98 µg/mL) in series [1]; 125 µM (≈ 46.5 µg/mL) in the series with Mycobacterium avium [2]; 8 µM (≈ 2.98 µg/mL) in [3]; 125 µM (≈ 46.5 µg/mL) against Mycobacterium avium [4]; 32 µM (≈ 11.9 µg/mL) against Mycobacterium kansasii [5]; 62 µM (≈ 23.1 µg/mL) with Mycobacterium kansasii [6]. Also, the MIC against Mycobacterium kansasii [7] came to 62 µM (≈ 23.1 µg/mL); with Mycobacterium kansasii [8] it was 16 µM (≈ 5.96 µg/mL); with Mycobacterium kansasii [9] it was 32 µM (≈ 11.9 µg/mL); in the series with Mycobacterium kansasii [10], 32 µM (≈ 11.9 µg/mL). The IC50 in series [11] is 115 µM.

In the case of `O=[N+]([O-])c1ccc(C[Se]c2nnn(Cc3ccccc3)n2)c([N+](=O)[O-])c1`, the MIC stood at 16 µM (≈ 6.71 µg/mL) in series [1]; 62 µM (≈ 26 µg/mL) with Mycobacterium avium [2]; 16 µM (≈ 6.71 µg/mL) in series [3]; 62 µM (≈ 26 µg/mL) against Mycobacterium avium [4]; 16 µM (≈ 6.71 µg/mL) in the series on Mycobacterium kansasii [5]; 16 µM (≈ 6.71 µg/mL) in the series on Mycobacterium kansasii [6]. Also, the MIC turned out to be 32 µM (≈ 13.4 µg/mL) in the series on Mycobacterium kansasii [7], 32 µM (≈ 13.4 µg/mL) in the series on Mycobacterium kansasii [8], 32 µM (≈ 13.4 µg/mL) with Mycobacterium kansasii [9] and 62 µM (≈ 26 µg/mL) against Mycobacterium kansasii [10]. In series [11], the IC50 came out at 22 µM.

Consider `O=[N+]([O-])c1cc(Cn2nnc(SCc3ccccc3)n2)cc([N+](=O)[O-])c1`, for which the MIC in [1] was 16 µM (≈ 5.96 µg/mL); in the series on Mycobacterium avium [2], 125 µM (≈ 46.5 µg/mL); in series [3], 16 µM (≈ 5.96 µg/mL); with Mycobacterium avium [4] it was 125 µM (≈ 46.5 µg/mL); against Mycobacterium kansasii [5], 16 µM (≈ 5.96 µg/mL); in the series with Mycobacterium kansasii [6], 32 µM (≈ 11.9 µg/mL). Moreover, the MIC was 32 µM (≈ 11.9 µg/mL) in the series with Mycobacterium kansasii [7], 16 µM (≈ 5.96 µg/mL) against Mycobacterium kansasii [8], 32 µM (≈ 11.9 µg/mL) against Mycobacterium kansasii [9] and 32 µM (≈ 11.9 µg/mL) in the series on Mycobacterium kansasii [10]. The IC50 in [11] amounted to 148 µM.

As to `O=[N+]([O-])c1cc(CSc2nnn(Cc3ccc(Cl)c(Cl)c3)n2)cc([N+](=O)[O-])c1`, the MIC in [1] was 1 µM (≈ 0.441 µg/mL); with Mycobacterium avium [2] it was 125 µM (≈ 55.2 µg/mL); in series [3], 1 µM (≈ 0.441 µg/mL); in the series with Mycobacterium avium [4], 125 µM (≈ 55.2 µg/mL); with Mycobacterium kansasii [5], 8 µM (≈ 3.53 µg/mL); with Mycobacterium kansasii [6], 16 µM (≈ 7.06 µg/mL). The MIC worked out at 32 µM (≈ 14.1 µg/mL) in the series on Mycobacterium kansasii [7], 16 µM (≈ 7.06 µg/mL) against Mycobacterium kansasii [8], 32 µM (≈ 14.1 µg/mL) against Mycobacterium kansasii [9] and 32 µM (≈ 14.1 µg/mL) against Mycobacterium kansasii [10]. Besides, in [11], the IC50 is 150 µM.

With `O=[N+]([O-])c1cc(CSc2nnnn2Cc2ccc(Cl)c(Cl)c2)cc([N+](=O)[O-])c1`, the MIC was found to be 2 µM (≈ 0.883 µg/mL) in [1]; 125 µM (≈ 55.2 µg/mL) with Mycobacterium avium [2]; 2 µM (≈ 0.883 µg/mL) in series [3]; 125 µM (≈ 55.2 µg/mL) against Mycobacterium avium [4]; 2 µM (≈ 0.883 µg/mL) against Mycobacterium kansasii [5]; 4 µM (≈ 1.77 µg/mL) against Mycobacterium kansasii [6]. In addition, the MIC was 4 µM (≈ 1.77 µg/mL) in the series with Mycobacterium kansasii [7], 2 µM (≈ 0.883 µg/mL) with Mycobacterium kansasii [8], 4 µM (≈ 1.77 µg/mL) with Mycobacterium kansasii [9] and 8 µM (≈ 3.53 µg/mL) against Mycobacterium kansasii [10]. In [11], the IC50 was 140 µM.

`O=[N+]([O-])c1cc(C[Se]c2nnn(Cc3ccccc3)n2)cc([N+](=O)[O-])c1`: the MIC in series [1] was 1 µM (≈ 0.419 µg/mL); in the series on Mycobacterium avium [2] it was 16 µM (≈ 6.71 µg/mL); in series [3], 1 µM (≈ 0.419 µg/mL); against Mycobacterium avium [4] it was 32 µM (≈ 13.4 µg/mL); against Mycobacterium kansasii [5], 1 µM (≈ 0.419 µg/mL); with Mycobacterium kansasii [6], 1 µM (≈ 0.419 µg/mL). The MIC with Mycobacterium kansasii [7] is 1 µM (≈ 0.419 µg/mL); against Mycobacterium kansasii [8], 1 µM (≈ 0.419 µg/mL); with Mycobacterium kansasii [9], 1 µM (≈ 0.419 µg/mL); in the series on Mycobacterium kansasii [10], 2 µM (≈ 0.839 µg/mL). Further, the outcome (with Staphylococcus aureus [12]; with Staphylococcus aureus [13]; in series [14]; in the series on Enterococcus faecalis; with Escherichia coli; in the series on Klebsiella pneumoniae [15]) was inactive. Besides, the outcome in the series on Klebsiella pneumoniae [16], in the series with Klebsiella pneumoniae [17], in the series on Pseudomonas aeruginosa, in the series on Candida albicans, in the series with Candida tropicalis and in the series with Pichia kudriavzevii was inactive. Moreover, the result (in the series on Nakaseomyces glabratus; with Trichosporon asahii; in the series with Aspergillus fumigatus; in the series on Lichtheimia corymbifera; in series [18]) was inactive. Further, in [11], the IC50 amounted to 136 µM. Moreover, the Activity entry with Salmonella typhimurium [19] and in the series on Salmonella typhimurium [20] was “Toxic” in each case.
